According to patent US10072014B2 (Janssen Pharmaceutica NV, priority 2014, dated 2018):
Read-outs that look alike come from different tables or passages of the source.

Legend:
[1] = molecular target: T1, human mGlu2 receptor (Homo sapiens, UniProt Q14416); experiment: [35S]GTPγS binding assay, negative allosteric modulation of mGluR2; assay type: biochemical
T1 construct: expressed in transfected cells; host or cells: CHO cells
Text: The compounds provided in the present invention are negative allosteric modulators of mGluR2. These compounds appear to inhibit glutamate responses by binding to an allosteric site other than the glutamate binding site. The response of mGluR2 to a concentration of glutamate is decreased when compounds of Formula (I) are present. Compounds of Formula (I) are expected to have their effect substantially at mGluR2 by virtue of their ability to reduce the function of the receptor. The effects of negative allosteric modulators tested at mGluR2 using the [^35S]GTPγS binding assay method described below and which is suitable for the identification of such compounds, and more particularly the compounds according to Formula (I), are shown in Table 7.
1) [^35S]GTPγS Binding Assay
The [^35S]GTPγS binding assay is a functional membrane-based assay used to study G-protein coupled receptor (GPCR) function whereby incorporation of a non-hydrolysable form of GTP, [^35S]GTPγS (guanosine 5′-triphosphate, labelled with […] ^35S), is measured. The G-protein a subunit catalyzes the exchange of guanosine 5′-diphosphate (GDP) by guanosine triphosphate (GTP) and on activation of the GPCR by an agonist, [^35S]GTPγS, becomes incorporated and cannot be cleaved to continue the exchange cycle (Harper (1998) Current Protocols in Pharmacology 2.6.1-10, John Wiley & Sons, Inc.). […] Here we describe the use of the [^35S]GTPγS binding assay using membranes from cells transfected with the human mGlu2 receptor and adapted from Schaffhauser et al. (Molecular Pharmacology, 2003, […]) for the detection of the negative allosteric modulation (NAM) properties of the compounds of this invention.
CHO-cells were cultured to pre-confluence and stimulated with 5 mM butyrate for 24 h. Cells were then collected by scraping in PBS and cell suspension was centrifuged (10 min at 4000 RPM in benchtop centrifuge). Supernatant was discarded and pellet gently resuspended in 50 mM Tris-HCl, pH 7.4 by mixing with an Ultra Turrax homogenizer. The suspension was centrifuged at 12,400 RPM (Sorvall F14S-6x250Y) for 10 minutes and the supernatant discarded. The pellet was homogenized in 5 mM Tris-HCl, pH 7.4 using an Ultra Turrax homogenizer and centrifuged again (13,000 RPM, 20 min, 4° C.). The final pellet was resuspended in 50 mM Tris-HCl, pH 7.4 and stored at −80° C. in appropriate aliquots before use. Protein concentration was determined by the Bradford method (Bio-Rad, USA) with bovine serum albumin as standard.
[^35S]GTPγS Binding Assay
Measurement of mGluR2 negative allosteric modulatory activity of test compounds was performed as follows. Test compounds and glutamate were diluted in assay buffer containing 10 mM HEPES acid, 10 mM HEPES salt, pH 7.4, 100 mM NaCl, 3 mM MgCl2 and 10 μM GDP. Human mGlu2 receptor-containing membranes were thawed on ice and diluted in assay buffer supplemented with 18 μg/ml saponin. Membranes were pre-incubated with compound together with a predefined (˜EC80) concentration of glutamate (60 μM) for 30 min at 30° C. After addition of [^35S]GTPγS (f.c. 0.1 nM), assay mixtures were shaken briefly and further incubated to allow [^35S]GTPγS incorporation on activation (30 minutes, 30° C.). Final assay mixtures contained 7 μg of membrane protein in 10 mM HEPES acid, 10 mM HEPES salt, pH 7.4, 100 mM NaCl, 3 mM MgCl2, 10 μM GDP and 10 μg/ml saponin. Total reaction volume was 200 μl. Reactions were terminated by rapid filtration through Unifilter-96 GF/B plates (Perkin Elmer, Massachusetts, USA) using a 96-well filtermate universal harvester. Filters were washed 6 times with ice-cold 10 mM NaH2PO4/10 mM Na2HPO4, pH 7.4. Filters were then air-dried, and 30 μl of liquid scintillation cocktail (Microscint-O) was added to each well. Membrane-bound radioactivity was counted in a Topcount.
The concentration-response curves of representative compounds of the present invention were generated using the Lexis software interface (developed at J&J). […]

[2] = tested on: rats; experiment: Reversal of the effect of the mGluR2 PAM JNJ-42153605-induced inhibition of scopolamine-induced hyperlocomotion; assay type: in vivo; settings: Rattus norvegicus, PO
Protocol: 2) Reversal of the Effect of the mGluR2 PAM JNJ-42153605-induced Inhibition of Scopolamine-induced Hyperlocomotion Apparatus
Motor activity was measured in microprocessor-based motor activity arenas (closed gray PVC cylinders with a height of 39 cm and a diameter of 31 cm). Each arena was placed on an infrared LED (8×8 LEDs) lit box (white PVC squared box; 40×40 cm^2; height 12.5 cm. An infrared-sensitive tube camera and a white light source were mounted to the ceiling above the observation chamber to track the animal. The total distance traveled (cm) was recorded and analyzed using the Noldus Ethovision XT Video Tracking System (Version 7.0.418; Noldus, Wageningen, The Netherlands). The intensity of the light within the activity cages (measured in the centre at the level of the floor) ranged between 4 and 8 LUX.
The rats were pretreated with test compound or vehicle at 60 min before the start of the activity recordings and placed into individual cages. The rats were challenged with JNJ-42153605 (3-(cyclopropylmethyl)-7-(4-phenylpiperidin-1-yl)-8-(trifluoromethyl)-[1,2,4]triazolo[4,3-a]pyridine; WO2010/130424; Cid et al. J. Med. Chem. 2012, 55, 8770-8789) (20 mg/kg, i.v.) 30 min before the start of the activity recording combined with scopolamine (0.16 mg/kg, i.v.) just before the start of the activity measurements. Immediately after the injection of scopolamine, the rats were placed into the activity monitors and total distance traveled over the first 30 min was measured.
Solvent-pretreated Control Rats.
Animals receiving the combination of JNJ-42153605 and scopolamine (n=433) almost always traveled a distance of less than 1500 cm (<1500 cm) (only 2.5% of the control rats traveled a distance of more than 1500 cm (>1500 cm)). On the other hand, animals challenged with scopolamine alone (n=215) always traveled a total distance of more than 1500 cm (>1500 cm) and almost always (in 95.8% of the rats) a distance of more than 4400 cm (>4400 cm). […] For reversal of the inhibitory effect of JNJ-42153605 on the scopolamine-induced hyperlocomotion, the following all-or-none criteria were adopted: (1) reversal: total distance>1500 cm.

T1 sequence (Q14416 19-872): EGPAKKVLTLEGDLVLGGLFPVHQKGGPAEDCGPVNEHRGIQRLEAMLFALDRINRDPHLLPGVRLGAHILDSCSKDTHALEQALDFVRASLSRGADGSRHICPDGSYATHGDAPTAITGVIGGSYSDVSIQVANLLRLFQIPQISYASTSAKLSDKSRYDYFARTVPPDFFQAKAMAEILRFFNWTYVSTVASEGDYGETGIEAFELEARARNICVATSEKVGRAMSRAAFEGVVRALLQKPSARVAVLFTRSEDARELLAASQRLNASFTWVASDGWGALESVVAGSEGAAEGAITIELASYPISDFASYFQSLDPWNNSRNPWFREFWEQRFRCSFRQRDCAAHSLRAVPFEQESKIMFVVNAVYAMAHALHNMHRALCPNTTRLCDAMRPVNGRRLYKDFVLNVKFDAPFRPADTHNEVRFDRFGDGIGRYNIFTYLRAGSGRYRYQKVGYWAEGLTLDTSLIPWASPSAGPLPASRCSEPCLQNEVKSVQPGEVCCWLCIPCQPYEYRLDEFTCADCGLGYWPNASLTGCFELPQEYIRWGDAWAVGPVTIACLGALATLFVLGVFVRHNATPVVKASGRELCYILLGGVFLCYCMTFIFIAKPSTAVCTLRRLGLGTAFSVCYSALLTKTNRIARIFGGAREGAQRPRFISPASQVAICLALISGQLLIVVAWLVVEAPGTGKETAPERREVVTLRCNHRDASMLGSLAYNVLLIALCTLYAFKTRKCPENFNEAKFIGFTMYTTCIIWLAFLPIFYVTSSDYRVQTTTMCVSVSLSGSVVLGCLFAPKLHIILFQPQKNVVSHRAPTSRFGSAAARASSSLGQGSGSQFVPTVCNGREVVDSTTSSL

Emax ([1]; maximal % inhibition relative to the control glutamate response (EC80 glutamate), read-out: GTPγS-hmGluR2 anGT Emax): 106% | IC50 ([1]; membranes from CHO cells transfected with human mGlu2 receptor, glutamate 60 μM (~EC80), read-out: GTPγS-hmGluR2 anGT pIC50 (converted)): 3.47 nM | melting point: 188.27 °C
Structure (SMILES): Cc1ncc(-c2cnn3c2C(=O)N(c2ccc(C(F)(F)F)c(Cl)c2)C[C@@H]3C)[nH]1 [Compound 27]
ED50 ([2]; criterion for reversal: total distance >1500 cm, read-out: ED50 SCOP JNJ-42153605): > 2.5 mg/kg | ED50 ([2]; more sensitive criterion for reversal: total distance >1300 cm, read-out: ED50 SCOP JNJ-42153605, more sensitive criterion): 1.25 mg/kg
